Starred links: 1 amine or outer side, 2 acyl side, 3 side chain; linkers in the order of their positions; H or OH if unused. Non-standard residues stand in square brackets, D forms with d. Residues, ends and D or L forms follow the SMILES beside them. Groups on a side chain read outwards from the residue. *: point of attachment. C18 diacid = O=C(O)CCCCCCCCCCCCCCCCC(=O)*; γGlu = O=C(O)[C@H](CCC(=O)[*:2])N[*:1]; εLys = N[C@@H](CCCCN[*:1])C(=O)[*:2]; AEEA = NCCOCCOCC(=O)O; Aib = CC(C)(N)C(=O)O
Assay: Pharmacokinetic study in dogs after oral dosing of tablets with SNAC
Format: in vivo, Beagle dogs
Experimental: The purpose of this example is to determine the half-life and plasma exposure in vivo of the compounds of the present invention after p.o. administration to beagle dogs, i.e. the terminal half-life and concentration of test substance that reaches circulation with time. This is done in a pharmacokinetic (PK) study, where these parameters of the compound in question are determined. By terminal half-life is generally meant the period of time it takes to halve a certain plasma concentration, measured after the initial distribution phase.
The amount of SNAC in the tablet composition was 100-300 mg, the amount of magnesium stearate in the tablet composition was 7.7 mg, and the target amount of each test substance in the tablet composition was 3-4 mg.
Male beagle dogs, 1-7 years of age and weighing 9-17 kg during the study period, were included in the study. The dogs were dosed in a fasting state. The dogs were group housed in pens (12 hours light: 12 hours dark), and fed individually and restrictedly once daily with Royal Canin Medium Adult dog food (Royal Canin Products, China Branch, or Brogaarden A/S, Denmark). The dogs were used for repeated PK studies with a suitable wash-out period between successive dosing. An appropriate acclimatization period was given prior to initiation of the first PK study. All handling, dosing, and blood sampling of the animals were performed by trained and skilled staff. Before the studies, the dogs were fasted overnight and from 0 to 4 hours after dosing. The dogs were restricted to water 1 hour before dosing until 4 hours after dosing, but otherwise had ad libitum access to water during the whole period.
The compositions were administered by a single oral dosing to the dogs in groups of 6-8 dogs. […] The mouth was then closed, and 10 mL of tap water was given by syringe or gavage to facilitate swallowing of the tablet.
One blood sample was drawn before dosing, and additional samples were drawn at predefined time points after dosing for up to 240 hours, such as up to 10 hours, to adequately cover the full plasma concentration-time absorption profile of the test substance. For each blood sample time point, approximately 0.8 mL of whole blood was collected in a 1.5 mL EDTA-coated tube, which was gently turned to mix the sample with EDTA. Blood samples were collected in EDTA buffer (8 mM) and then centrifuged at 4° C. 2000 g for 10 minutes. Plasma was pipetted into Micronic tubes on dry ice, and kept at −20° C. or lower until analysis. Blood samples were taken as appropriate, for example from a venflon in the cephalic vein in the front leg for the first 2 hours and then with syringe from the jugular vein for the rest of the time points. The first few drops were allowed to drain from the venflon to avoid heparin saline from the venflon in the sample.
All blood samples were collected into test tubes containing EDTA for stabilisation and kept on ice until centrifugation. Plasma was separated from whole blood by centrifugation and the plasma was stored at −20° C. or lower until analysis.
The plasma was analysed for test substance using LC-MS (Liquid Chromatography-Mass Spectrometry) as known to the person skilled in the art. […] RP-HPLC separation was achieved using a linear gradient of 1:1 acetonitrile/methanol in 1% aqueous formic acid using either: a Phenomenex Onyx Monolithic C18 column (50×2.0 mm) and a flow rate of 0.8 mL/min at 30° C.; or an Agilent Poroshell 120 SB-C18 column (50×2.1 mm, 2.7 μm) at a flow rate of 0.4 mL/min at 60° C. The mass spectrometer was operated in either positive ionization SIM mode or positive ionization PRM mode.
For each individual animal, a plasma concentration-time profile was analysed by a non-compartmental model in Pharsight Phoenix WinNonLin ver.

[1] = oral tablet, SNAC 100 mg, test substance 3 mg, Beagle dogs, arithmetic mean

`CC[C@H](C)[C@H](NC(=O)[C@H](Cc1ccccc1)NC(=O)[C@H](CCC(=O)O)NC(=O)[C@H](CCCNC(=N)N)NC(=O)[C@H](C)NC(=O)[C@H](C)NC(=O)[C@H](CCC(N)=O)NC(=O)[C@H](CCCCNC(=O)[C@@H](N)CCCCNC(=O)[C@@H](N)CCCCNC(=O)CC[C@H](NC(=O)CCCCCCCCCCCCCCCCC(=O)O)C(=O)O)NC(=O)[C@H](CCC(=O)O)NC(=O)[C@H](CC(C)C)NC(=O)[C@H](CC(C)C)NC(=O)[C@@H](NC(=O)[C@H](CO)NC(=O)[C@H](Cc1ccc(O)cc1)NC(=O)[C@H](CC(=O)O)NC(=O)[C@H](CO)NC(=O)[C@@H](NC(=O)[C@H](Cc1ccccc1)NC(=O)[C@@H](NC(=O)CNC(=O)[C@H](CCC(=O)O)NC(=O)C(C)(C)NC(=O)[C@@H](N)Cc1ccc(O)cc1)[C@@H](C)O)[C@@H](C)O)[C@@H](C)CC)C(=O)N[C@@H](CC(N)=O)C(=O)N[C@@H](Cc1c[nH]c2ccccc12)C(=O)N[C@@H](CC(C)C)C(=O)N[C@@H](CC(C)C)C(=O)N[C@@H](C)C(=O)NCC(=O)NCC(=O)N1CCC[C@H]1C(=O)N[C@@H](CO)C(=O)N[C@@H](CO)C(=O)NCC(=O)N[C@@H](C)C(=O)N1CCC[C@H]1C(=O)N1CCC[C@H]1C(=O)N1CCC[C@H]1C(=O)N[C@@H](CO)C(=O)O` [Compound 15] (H-Y[Aib]EGTFTSDYSILLEK([εLys-εLys-γGlu-C18 diacid])QAAREFINWLLAGGPSSGAPPPS-OH) showed a Tmax (dog, in vivo, po) of 2.0 h and a t1/2 (dog, in vivo, po) of 46 h.
For `CC[C@H](C)[C@H](NC(=O)[C@H](Cc1ccccc1)NC(=O)[C@H](CCC(=O)O)NC(=O)[C@H](CCCNC(=N)N)NC(=O)[C@H](C)NC(=O)[C@H](C)NC(=O)[C@H](CCC(N)=O)NC(=O)[C@H](CCCCNC(=O)[C@@H](N)CCCCNC(=O)[C@@H](N)CCCCNC(=O)CC[C@H](NC(=O)CCCCCCCCCCCCCCCCC(=O)O)C(=O)O)NC(=O)[C@H](CCC(=O)O)NC(=O)[C@H](CC(C)C)NC(=O)[C@H](Cc1ccc(O)cc1)NC(=O)[C@@H](NC(=O)[C@H](CO)NC(=O)[C@H](Cc1ccc(O)cc1)NC(=O)[C@H](CC(=O)O)NC(=O)[C@H](CO)NC(=O)[C@@H](NC(=O)[C@H](Cc1ccccc1)NC(=O)[C@@H](NC(=O)CNC(=O)[C@H](CCC(=O)O)NC(=O)C(C)(C)NC(=O)[C@@H](N)Cc1ccc(O)cc1)[C@@H](C)O)[C@@H](C)O)[C@@H](C)CC)C(=O)N[C@@H](CCC(=O)O)C(=O)N[C@@H](Cc1c[nH]c2ccccc12)C(=O)N[C@@H](CC(C)C)C(=O)N[C@@H](CC(C)C)C(=O)N[C@@H](C)C(=O)NCC(=O)NCC(=O)N1CCC[C@H]1C(=O)N[C@@H](CO)C(=O)N[C@@H](CO)C(=O)NCC(=O)N[C@@H](C)C(=O)N1CCC[C@H]1C(=O)N1CCC[C@H]1C(=O)N1CCC[C@H]1C(=O)N[C@@H](CO)C(=O)O` [Compound 9] (H-Y[Aib]EGTFTSDYSIYLEK([εLys-εLys-γGlu-C18 diacid])QAAREFIEWLLAGGPSSGAPPPS-OH), the AUC/Dose (dog, in vivo, po) was 12.1 kg·h/L and the Cmax/Dose (dog, in vivo, po) was 0.24 kg/L.
`CC[C@H](C)[C@H](NC(=O)[C@H](Cc1ccccc1)NC(=O)[C@H](CCC(=O)O)NC(=O)[C@H](CCCNC(=N)N)NC(=O)[C@H](C)NC(=O)[C@H](C)NC(=O)[C@H](CCC(N)=O)NC(=O)[C@H](CCCCNC(=O)[C@@H](N)CCCCNC(=O)[C@@H](N)CCCCNC(=O)CC[C@H](NC(=O)CCCCCCCCCCCCCCCCC(=O)O)C(=O)O)NC(=O)[C@H](CCC(=O)O)NC(=O)[C@H](CC(C)C)NC(=O)[C@H](Cc1ccc(O)cc1)NC(=O)[C@@H](NC(=O)[C@H](CO)NC(=O)[C@H](Cc1ccc(O)cc1)NC(=O)[C@H](CC(=O)O)NC(=O)[C@H](CO)NC(=O)[C@@H](NC(=O)[C@H](Cc1ccccc1)NC(=O)[C@@H](NC(=O)CNC(=O)[C@H](CCC(=O)O)NC(=O)C(C)(C)NC(=O)[C@@H](N)Cc1ccc(O)cc1)[C@@H](C)O)[C@@H](C)O)[C@@H](C)CC)C(=O)N[C@@H](CCC(=O)O)C(=O)N[C@@H](Cc1c[nH]c2ccccc12)C(=O)N[C@@H](CC(C)C)C(=O)N[C@@H](CC(C)C)C(=O)N[C@@H](CCCNC(=N)N)C(=O)NCC(=O)NCC(=O)N1CCC[C@H]1C(=O)N[C@@H](CCC(=O)O)C(=O)N[C@@H](CO)C(=O)NCC(=O)N[C@@H](C)C(=O)N1CCC[C@H]1C(=O)N1CCC[C@H]1C(=O)N1CCC[C@H]1C(=O)N[C@@H](CO)C(=O)O` [Compound 13] (H-Y[Aib]EGTFTSDYSIYLEK([εLys-εLys-γGlu-C18 diacid])QAAREFIEWLLRGGPESGAPPPS-OH) gave an AUC/Dose [1] of 14.8 kg·h/L and a Cmax/Dose [1] of 0.29 kg/L.
Compound `CC[C@H](C)[C@H](NC(=O)[C@H](Cc1ccccc1)NC(=O)[C@H](CCC(=O)O)NC(=O)[C@H](CCCNC(=N)N)NC(=O)[C@H](C)NC(=O)[C@H](C)NC(=O)[C@H](CCC(N)=O)NC(=O)[C@H](CCCCNC(=O)COCCOCCNC(=O)COCCOCCNC(=O)CC[C@H](NC(=O)CCCCCCCCCCCCCCCCC(=O)O)C(=O)O)NC(=O)[C@H](CCC(=O)O)NC(=O)[C@H](CC(C)C)NC(=O)[C@H](Cc1ccc(O)cc1)NC(=O)[C@@H](NC(=O)[C@H](CO)NC(=O)[C@H](Cc1ccc(O)cc1)NC(=O)[C@H](CC(=O)O)NC(=O)[C@H](CO)NC(=O)[C@@H](NC(=O)[C@H](Cc1ccccc1)NC(=O)[C@@H](NC(=O)CNC(=O)[C@H](CCC(=O)O)NC(=O)C(C)(C)NC(=O)[C@@H](N)Cc1ccc(O)cc1)[C@@H](C)O)[C@@H](C)O)[C@@H](C)CC)C(=O)N[C@@H](CCC(=O)O)C(=O)N[C@@H](Cc1c[nH]c2ccccc12)C(=O)N[C@@H](CC(C)C)C(=O)N[C@@H](CC(C)C)C(=O)N[C@@H](C)C(=O)NCC(=O)NCC(=O)N1CCC[C@H]1C(=O)N[C@@H](CO)C(=O)N[C@@H](CO)C(=O)NCC(=O)N[C@@H](C)C(=O)N1CCC[C@H]1C(=O)N1CCC[C@H]1C(=O)N1CCC[C@H]1C(=O)N[C@@H](CO)C(=O)O` [Compound 10] (H-Y[Aib]EGTFTSDYSIYLEK([AEEA-AEEA-γGlu-C18 diacid])QAAREFIEWLLAGGPSSGAPPPS-OH) has an AUC/Dose (dog, in vivo, po) of 8.4 kg·h/L and a Cmax/Dose (dog, in vivo, po) of 0.20 kg/L.
Work on `CC[C@H](C)[C@H](NC(=O)[C@H](Cc1ccccc1)NC(=O)[C@H](CCC(=O)O)NC(=O)[C@H](CCCNC(=N)N)NC(=O)[C@H](C)NC(=O)[C@H](C)NC(=O)[C@H](CCC(N)=O)NC(=O)[C@H](CCCCNC(=O)[C@@H](N)CCCCNC(=O)[C@@H](N)CCCCNC(=O)CC[C@H](NC(=O)CCCCCCCCCCCCCCCCC(=O)O)C(=O)O)NC(=O)[C@H](CCC(=O)O)NC(=O)[C@H](CC(C)C)NC(=O)[C@H](Cc1ccc(O)cc1)NC(=O)[C@@H](NC(=O)[C@H](CO)NC(=O)[C@H](Cc1ccc(O)cc1)NC(=O)[C@H](CC(=O)O)NC(=O)[C@H](CO)NC(=O)[C@@H](NC(=O)[C@H](Cc1ccccc1)NC(=O)[C@@H](NC(=O)CNC(=O)[C@H](CCC(=O)O)NC(=O)C(C)(C)NC(=O)[C@@H](N)Cc1ccc(O)cc1)[C@@H](C)O)[C@@H](C)O)[C@@H](C)CC)C(=O)N[C@@H](CC(N)=O)C(=O)N[C@@H](Cc1c[nH]c2ccccc12)C(=O)N[C@@H](CC(C)C)C(=O)N[C@@H](CC(C)C)C(=O)N[C@@H](C)C(=O)NCC(=O)NCC(=O)N1CCC[C@H]1C(=O)N[C@@H](CO)C(=O)N[C@@H](CO)C(=O)NCC(=O)N[C@@H](C)C(=O)N1CCC[C@H]1C(=O)N1CCC[C@H]1C(=O)N1CCC[C@H]1C(=O)N[C@@H](CO)C(=O)O` [Compound 11] (H-Y[Aib]EGTFTSDYSIYLEK([εLys-εLys-γGlu-C18 diacid])QAAREFINWLLAGGPSSGAPPPS-OH) yielded an AUC/Dose (dog, in vivo, po) of 7.1 kg·h/L and a Cmax/Dose (dog, in vivo, po) of 0.19 kg/L.
